According to article PMC9428149, “Tackling recalcitrant Pseudomonas aeruginosa infections in critical illness via anti-virulence monotherapy” (Nature Communications, 2022):
≈ marks a conversion by molar mass, not a printed value. Where “and” joins values, the source holds several entries; their conditions need not be identical. Equal entries are not always repeated. Where two headings read alike, the source gives them in different places.

What was measured:
[1] = system: pqsA promoter (PA14 PpqsA-GFPASV); test: pqsA-GFP reporter expression; format: cell-based, Pseudomonas aeruginosa; conditions: Pseudomonas aeruginosa, PA14, read-out: % Production pqsA-GFP
PA14 AT/P cells = test: AT/P cells formation assay in PA14; format: cell-based, Pseudomonas aeruginosa
PA14 biofilm = test: Biofilm formation in 96-well plates, PA14; format: cell-based, Pseudomonas aeruginosa; conditions: PA14, 10 µM, 24 h
[2] = system: mvfR mutant constitutively expressing the pqsABCDE operon; format: cell-based; conditions: Pseudomonas aeruginosa, control about 100, single replicates (Figure 4a)
[3] = Solubility in iPBS pH 7.4 by HPLC; format: physicochemical; conditions: isotonic phosphate buffer (iPBS), aqueous with cosolvent or surfactant or cyclodextrin, kinetic from dmso stock; iPBS pH 7.4, HPLC; read-out: Solubility (M) in PBS
Procedure: Solubility of the 10 mM compounds dissolved in DMSO was tested in the isotonic phosphate buffer (iPBS) at pH 7.4 using High-Performance Liquid Chromatography (HPLC). For the preparation of iPBS phosphate-buffered saline tab (Sigma-Aldrich 08057-12Tab-F) is dissolved in 500 mL of deionized water and the final composition of the solution contains 10 mM PBS, 2.7 mM KCl, 140 mM NaCl and 0.05% Tween. A total 10 µL of the compound from a 10 mM stock solution in DMSO was added to the vial, and 190 µL of buffer was added to each vial and mixed with shaking at room temperature for 4 h. Thereafter the samples were filtered, and 160 µL of the sample was mixed with 40 µL of DMSO for the final injection. Ibuprofen (high solubility) and Progesterone (low Solubility) were used as standard compounds. Ammonium Acetate aqueous solution (50 mM, pH 7.4) and the acetonitrile were used as mobile phases A and B, respectively. The measurement of concentration was achieved by comparing of UV absorbance of the sample solution and the known standard solution following an HPLC separation using a generic fast gradient method. The solubility of each compound is expressed by the ratio of compound amount in the sample test solution to the amount of compound in the standard solution.

[4] = system: pyocyanin production in PA14; test: Pyocyanin production assay; conditions: Pseudomonas aeruginosa
[5] = system: 16 MDR P. aeruginosa clinical isolates; test: Pyocyanin production in MDR clinical isolates; conditions: Pseudomonas aeruginosa, 18 h, Control about 100, replicates
Procedure: The over-day culture was grown to OD600nm 1.5., diluted again at 1:10,000 in 5 mL LB and incubated with 10 μM of the test compound or the vehicle control for 18 hours at 37 °C and 200 rpm in an incubator shaker. After 18 h, 1 mL of culture was centrifuged for 2 min at 20.000 x g. The supernatant was transferred to a new tube, 200 μL of this were loaded in a flat-bottom 96-well plate, and the pyocyanin levels were quantified by measuring at OD690nm in the infinite F200 plate reader using the Magellan software (Tecan, Switzerland). The same procedure was also followed for the pyocyanin production assessment for all the P. aeruginosa clinical isolates assessed in this study. The percent of pyocyanin was calculated compared to the PA14 culture grown in the absence of compounds.
Pyocyanin production was measured in 16 P.
aeruginosa clinical isolates 18hr post-growth in the presence or absence of 10 µM of each NAM
compound. The percent of pyocyanin production was calculated by comparing the same strain grown
in the presence of the vehicle control. b.

ΔmvfR biofilm = test: Biofilm formation of ΔmvfR mutant (off-target); conditions: Pseudomonas aeruginosa, PA14, 24 h, read-out: Biofilm formation, ΔmvfR + compound; PA14 about 100; single replicates (Figure 4c)
[6] = system: PA14 isogenic mutant ΔmvfR AT/P cells; test: AT/P cell formation in ΔmvfR mutant (off-target); conditions: Pseudomonas aeruginosa, PA14, 24 h, read-out: AT/P cell formation, ΔmvfR + compound; PA14 about 100; single replicates (Figure 4b)
Procedure: Cells were grown in the presence of 10 μg mL^−1 meropenem, with or without 10 µM of the compounds for 24 h. Values were normalized to cells grown for 4 h in the absence of antibiotics and compounds. The ∆mvfR cells grown with antibiotics and vehicles were considered control, and the percentage values were calculated compared to control. c Biofilm formation of mutant ∆mvfR cells with or without compound. […] The number of biological replicates for each compound and strain is depicted in the graph. The error bars denote ±SEM.
The AT/P cell formation assay was performed according to the method previously described in Starkey et al., 2014 (persister cell assay). The over-day culture was incubated at 37 °C with shaking at 200 rpm until the culture OD600nm was 3.0. The culture was then diluted at 1:100 and grown in the same conditions for 4 h. After 4 h, 200 µL were collected, and serial dilutions were plated on LB agar plates for CFU quantification (as normalizers). The remainder of the culture was treated with meropenem to a final concentration of 100 × MIC (Minimum Inhibitory Concentration; 10 mg L^−1) and compounds at a final concentration of 10 µM. After 24 h, culture aliquots were 10-fold serially diluted in LB broth and plated on LB agar for CFU quantification. The AT/P fraction was determined as the normalizers (pre-antibiotic) ratio divided by the AT/P fraction (24 h post-antibiotic)[22].

O=C(Nc1ccc(Oc2ccccc2)cc1)C(F)C(=O)Nc1ccc(C(F)(F)F)cc1 (stereo not drawn) [D100]
activity at 50 µM [1]: 2%
AT/P cells formation, percentage of control (single replicates) (PA14 AT/P cells; PA14, 10 μg mL^−1 meropenem, 10 µM compound, 24 h, control PA14 + vehicle): 18.86% and 47.86% and 24.02%
inhibition at 10 µM (PA14 AT/P cells; Pseudomonas aeruginosa, PA14, 24 h, read-out: inhibition of AT/P cells formation): ≥ 51%
biofilm formation inhibition rate (PA14 biofilm): highest inhibition
activity at 50 µM ([2]; read-out: 2-AA, ΔmvfR-pqsABCD strain): 97.5%
activity at 50 µM ([2]; read-out: DHQ, ΔmvfR-pqsABCD strain): 92.5%
activity at 50 µM ([2]; read-out: HHQ, ΔmvfR-pqsABCD strain): 104%
activity at 50 µM ([2]; read-out: HQNO, ΔmvfR-pqsABCD strain): 98.7%
activity at 50 µM ([2]; read-out: PQS, ΔmvfR-pqsABCD strain): 81.3%
solubility at 4 h [3]: 5e-06 M (≈ 2.16 µg/mL)
activity at 50 µM ([4]; PA14, 18 h, read-out: % Production Pyocyanin): 7%
IC50 ([4]; PA14, read-out: IC50 pyocyanin production): 380 nM
activity at 10 µM ([5]; read-out: Pyocyanin production relative to Control, clinical isolate LGR-4325): 13.3%
activity at 10 µM ([5]; read-out: Pyocyanin production relative to Control, clinical isolate LGR-4326): 19.1%
activity at 10 µM ([5]; read-out: Pyocyanin production relative to Control, clinical isolate LGR-4327): 21.7%
activity at 10 µM ([5]; read-out: Pyocyanin production relative to Control, clinical isolate LGR-4328): 31.1%
activity at 10 µM ([5]; read-out: Pyocyanin production relative to Control, clinical isolate LGR-4330): 31.1%
activity at 10 µM ([5]; read-out: Pyocyanin production relative to Control, clinical isolate LGR-4331 (first section, r117)): 23.5%
activity at 10 µM ([5]; read-out: Pyocyanin production relative to Control, clinical isolate LGR-4331 (second section, r140)): 12%
activity at 10 µM ([5]; read-out: Pyocyanin production relative to Control, clinical isolate LGR-4333): 15.4%
activity at 10 µM ([5]; read-out: Pyocyanin production relative to Control, clinical isolate LGR-4343): 13.4%
activity at 10 µM ([5]; read-out: Pyocyanin production relative to Control, clinical isolate LGR-4344): 16.3%
activity at 10 µM ([5]; read-out: Pyocyanin production relative to Control, clinical isolate LGR-4348): 26.1%
activity at 10 µM ([5]; read-out: Pyocyanin production relative to Control, clinical isolate LGR-4356): 16.4%
activity at 10 µM ([5]; read-out: Pyocyanin production relative to Control, clinical isolate LGR-4362): 33%
activity at 10 µM ([5]; read-out: Pyocyanin production relative to Control, clinical isolate LGR-4363): 10.2%
activity at 10 µM ([5]; read-out: Pyocyanin production relative to Control, clinical isolate LGR-4364 (first section, r326)): 13.3%
activity at 10 µM ([5]; read-out: Pyocyanin production relative to Control, clinical isolate LGR-4364 (second section, r349)): 10.6%
activity at 10 µM (ΔmvfR biofilm): 39.3%
activity at 10 µM [6]: 42.2%
